Molecular target: human factor Xa (FXa) (Homo sapiens, UniProt P00742)
Experiment: Determination of the factor Xa inhibition (chromogenic substrate)
Format: biochemical
Conditions: human FXa 0.5 nmol/l, 150 μmol/l Pefachrome FXa, 25° C., pH 8.3, extinction at 405 nm
Procedure: a.1) Determination of the Factor Xa Inhibition:
The enzymatic activity of human factor Xa (FXa) is measured using the conversion of a chromogenic substrate specific for FXa. Factor Xa cleaves p-nitroaniline from the chromogenic substrate. The determinations are carried out in microtitre plates as follows:
The test substances, in various concentrations, are dissolved in DMSO and incubated for 10 minutes at 25° C. with human FXa (0.5 nmol/l dissolved in 50 mmol/l of Tris buffer [C,C,C-tris(hydroxymethyl)aminomethane], 150 mmol/l of NaCl, 0.1% BSA [bovine serum albumin], pH=8.3). Pure DMSO is used as control. The chromogenic substrate (150 μmol/l of Pefachrome® FXa from Pentapharm) is then added. After an incubation time of 20 minutes at 25° C., the extinction at 405 nm is determined.

Sequence of human factor Xa (FXa) (P00742 235-488 limits assumed): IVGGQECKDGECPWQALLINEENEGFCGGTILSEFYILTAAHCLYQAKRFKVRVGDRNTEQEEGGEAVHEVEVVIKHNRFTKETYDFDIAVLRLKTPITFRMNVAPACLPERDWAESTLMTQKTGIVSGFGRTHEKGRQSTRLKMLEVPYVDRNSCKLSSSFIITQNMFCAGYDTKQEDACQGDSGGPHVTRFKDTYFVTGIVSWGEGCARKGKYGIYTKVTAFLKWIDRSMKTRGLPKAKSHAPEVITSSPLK
Sequence of human factor Xa (FXa) (P00742 41-179 partner limits assumed): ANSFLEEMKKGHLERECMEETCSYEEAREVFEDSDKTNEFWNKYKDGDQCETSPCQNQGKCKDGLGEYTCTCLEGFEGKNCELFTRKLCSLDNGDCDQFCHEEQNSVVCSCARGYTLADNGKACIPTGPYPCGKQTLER

Molecule N=C1OCCN1c1cccc(CN2Cc3cccc(NC(=O)c4ccc(Cl)s4)c3C2=O)c1 [Example 5, 5-Chloro-N-{2-[3-(2-imino-1,3-oxazolidin-3-yl)benzyl]-3-oxo-2,3-dihydro-1H-isoindol-4-yl}-thiophene-2-carboxamide methanesulphonate] has an IC50 of 1.1 nM.
